{
  "source": "ChEMBL document CHEMBL3880382",
  "about": "“TRH-like peptide derivatives as inhibitors of the TRH-degrading ectoenzyme” (2010)",
  "key": {"[1]": {"target": "T1, Thyrotropin releasing hormone degrading enzyme (Sus scrofa) (UniProt A0A287AP33)", "experiment": "Substrate activity at pig brain TRH-DE assessed as rate of hydrolysis at 1 mM incubated for 18 hrs by HPLC analysis"}, "[2]": {"target": "T1, Thyrotropin releasing hormone degrading enzyme (Sus scrofa)", "experiment": "Substrate activity at pig brain TRH-DE assessed as Vmax to Km ratio"}, "[3]": {"target": "T1, Thyrotropin releasing hormone degrading enzyme (Sus scrofa)", "experiment": "Inhibition of pig brain TRH-DE at 1 mM using Glp-His-ProAMC as substrate by DPP-4-based continuous fluorometric method"}, "[4]": {"substrate": "NC(=O)[C@@H]1CCCN1C(=O)[C@H](Cc1c[nH]cn1)NC(=O)[C@@H]1CCC(=O)N1", "experiment": "(§1) Substrate activity at pig brain TRH-DE assessed as Vmax after 18 hrs by HPLC analysis", "settings": "Sus scrofa"}, "[5]": {"substrate": "O=C1CC[C@@H](C(=O)N[C@@H](Cc2cnc[nH]2)C(=O)N2CCC[C@H]2C(=O)O)N1", "experiment": "as §1", "settings": "Sus scrofa"}, "[6]": {"substrate": "Cc1cc(=O)oc2cc(NC(=O)[C@@H]3CCCN3C(=O)[C@H](Cc3cnc[nH]3)NC(=O)[C@@H]3CCC(=O)N3)ccc12", "experiment": "as §1", "settings": "Sus scrofa"}, "[7]": {"substrate": "NC(=O)[C@@H]1CCCN1C(=O)[C@H](Cc1ccccc1)NC(=O)[C@@H]1CCC(=O)N1", "experiment": "as §1", "settings": "Sus scrofa"}, "[8]": {"substrate": "NC(=O)[C@@H]1CCCN1C(=O)[C@H](Cc1ccc(O)cc1)NC(=O)[C@@H]1CCC(=O)N1", "experiment": "as §1", "settings": "Sus scrofa"}, "[9]": {"substrate": "NC(=O)[C@@H]1CCCN1C(=O)[C@H](Cc1cccs1)NC(=O)[C@@H]1CCC(=O)N1", "experiment": "as §1", "settings": "Sus scrofa"}, "[10]": {"substrate": "NC(=O)[C@@H]1CCCN1C(=O)[C@H](Cc1c[nH]cn1)NC(=O)[C@@H]1CCC(=O)N1", "experiment": "(§2) Substrate activity at pig brain TRH-DE assessed as Km by discontinuous fluorometric method", "settings": "Sus scrofa"}, "[11]": {"substrate": "O=C1CC[C@@H](C(=O)N[C@@H](Cc2cnc[nH]2)C(=O)N2CCC[C@H]2C(=O)O)N1", "experiment": "as §2", "settings": "Sus scrofa"}, "[12]": {"substrate": "Cc1cc(=O)oc2cc(NC(=O)[C@@H]3CCCN3C(=O)[C@H](Cc3cnc[nH]3)NC(=O)[C@@H]3CCC(=O)N3)ccc12", "experiment": "as §2", "settings": "Sus scrofa"}, "[13]": {"substrate": "NC(=O)[C@@H]1CCCN1C(=O)[C@H](Cc1ccccc1)NC(=O)[C@@H]1CCC(=O)N1", "experiment": "as §2", "settings": "Sus scrofa"}, "[14]": {"substrate": "NC(=O)[C@@H]1CCCN1C(=O)[C@H](Cc1ccc(O)cc1)NC(=O)[C@@H]1CCC(=O)N1", "experiment": "as §2", "settings": "Sus scrofa"}, "[15]": {"substrate": "NC(=O)[C@@H]1CCCN1C(=O)[C@H](Cc1cccs1)NC(=O)[C@@H]1CCC(=O)N1", "experiment": "as §2", "settings": "Sus scrofa"}},
  "note": "Non-standard residues stand in square brackets, D forms with d. Residues, ends and D or L forms follow the SMILES beside them. hPhe = N[C@@H](CCc1ccccc1)C(=O)O; 2Thi = N[C@@H](Cc1cccs1)C(=O)O; pGlu = O=C1CC[C@@H](C(=O)O)N1; Phg = N[C@H](C(=O)O)c1ccccc1; Pip = O=C(O)[C@@H]1CCCCN1; Nva = CCC[C@H](N)C(=O)O",
  "data": [
    {"molecule": "CC(C)C[C@H](NC(=O)[C@@H]1CCC(=O)N1)C(=O)N1CCC[C@H]1C(N)=O", "note": "([pGlu]-Leu-Pro-NH2)", "values": [
      {"measurement": "Activity", "setting": "[1]", "result": 0.14, "unit": "U/mg"}
    ]},
    {"molecule": "NCCCC[C@H](NC(=O)[C@@H]1CCC(=O)N1)C(=O)N1CCC[C@H]1C(N)=O", "note": "([pGlu]-Lys-Pro-NH2)", "values": [
      {"measurement": "Activity", "setting": "[1]", "result": 0.46, "unit": "U/mg"}
    ]},
    {"molecule": "CSCC[C@H](NC(=O)[C@@H]1CCC(=O)N1)C(=O)N1CCC[C@H]1C(N)=O", "note": "([pGlu]-Met-Pro-NH2)", "values": [
      {"measurement": "Activity", "setting": "[1]", "result": 0.21, "unit": "U/mg"}
    ]},
    {"molecule": "NC(=O)[C@@H]1CCCN1C(=O)[C@H](Cc1ccccc1)NC(=O)[C@@H]1CCC(=O)N1", "note": "([pGlu]-Phe-Pro-NH2)", "values": [
      {"measurement": "Activity", "setting": "[1]", "result": 1.56, "unit": "U/mg"},
      {"measurement": "Vmax/Km", "setting": "[2]", "result": 0.03, "unit": "U/mg/µM"}
    ]},
    {"molecule": "NC(=O)[C@@H]1CCCN1C(=O)[C@@H]1CCCN1C(=O)[C@@H]1CCC(=O)N1", "note": "([pGlu]-Pro-Pro-NH2)", "values": [
      {"measurement": "inhibition", "setting": "[3]", "result": 3, "unit": "%"}
    ]},
    {"molecule": "NC(=O)[C@@H]1CCCN1C(=O)[C@H](CO)NC(=O)[C@@H]1CCC(=O)N1", "note": "([pGlu]-Ser-Pro-NH2)", "values": [
      {"measurement": "Activity", "setting": "[1]", "result": 0.05, "unit": "U/mg"}
    ]},
    {"molecule": "C[C@@H](O)[C@H](NC(=O)[C@@H]1CCC(=O)N1)C(=O)N1CCC[C@H]1C(N)=O", "note": "([pGlu]-Thr-Pro-NH2)", "values": [
      {"measurement": "Activity", "setting": "[1]", "result": 0.14, "unit": "U/mg"}
    ]},
    {"molecule": "NC(=O)[C@@H]1CCCN1C(=O)[C@H](Cc1c[nH]c2ccccc12)NC(=O)[C@@H]1CCC(=O)N1", "note": "([pGlu]-Trp-Pro-NH2)", "values": [
      {"measurement": "inhibition", "setting": "[3]", "result": 71, "unit": "%"}
    ]},
    {"molecule": "NC(=O)[C@@H]1CCCN1C(=O)[C@H](Cc1ccc(O)cc1)NC(=O)[C@@H]1CCC(=O)N1", "note": "([pGlu]-Tyr-Pro-NH2)", "values": [
      {"measurement": "Activity", "setting": "[1]", "result": 0.66, "unit": "U/mg"},
      {"measurement": "Vmax/Km", "setting": "[2]", "result": 0.05, "unit": "U/mg/µM"}
    ]},
    {"molecule": "CC(C)[C@H](NC(=O)[C@@H]1CCC(=O)N1)C(=O)N1CCC[C@H]1C(N)=O", "note": "([pGlu]-Val-Pro-NH2)", "values": [
      {"measurement": "Activity", "setting": "[1]", "result": 0.05, "unit": "U/mg"}
    ]},
    {"molecule": "NC(=O)[C@@H]1CCCN1C(=O)[C@H](Cc1cccs1)NC(=O)[C@@H]1CCC(=O)N1", "note": "([pGlu]-[2Thi]-Pro-NH2)", "values": [
      {"measurement": "Activity", "setting": "[1]", "result": 2.12, "unit": "U/mg"},
      {"measurement": "Vmax/Km", "setting": "[2]", "result": 0.06, "unit": "U/mg/µM"}
    ]},
    {"molecule": "CCC[C@H](NC(=O)[C@@H]1CCC(=O)N1)C(=O)N1CCC[C@H]1C(N)=O", "note": "([pGlu]-[Nva]-Pro-NH2)", "values": [
      {"measurement": "Activity", "setting": "[1]", "result": 0.04, "unit": "U/mg"}
    ]},
    {"molecule": "NC(=O)[C@@H]1CCCN1C(=O)[C@@H](NC(=O)[C@@H]1CCC(=O)N1)c1ccccc1", "note": "([pGlu]-[Phg]-Pro-NH2)", "values": [
      {"measurement": "inhibition", "setting": "[3]", "result": 57, "unit": "%"}
    ]},
    {"molecule": "NC(=O)[C@@H]1CCCN1C(=O)[C@@H]1CCCCN1C(=O)[C@@H]1CCC(=O)N1", "note": "([pGlu]-[Pip]-Pro-NH2)", "values": [
      {"measurement": "inhibition", "setting": "[3]", "result": 40, "unit": "%"}
    ]},
    {"molecule": "NC(=O)C[C@@H](NC(=O)[C@@H]1CCC(=O)N1)C(=O)N1CCC[C@H]1C(N)=O", "note": "([pGlu]-[dN]-Pro-NH2)", "values": [
      {"measurement": "inhibition", "setting": "[3]", "result": 2, "unit": "%"}
    ]},
    {"molecule": "NC(=O)[C@@H]1CCCN1C(=O)[C@H](CCc1ccccc1)NC(=O)[C@@H]1CCC(=O)N1", "note": "([pGlu]-[hPhe]-Pro-NH2)", "values": [
      {"measurement": "Activity", "setting": "[1]", "result": 0.05, "unit": "U/mg"}
    ]},
    {"molecule": "Thyrotropin releasing hormone degrading enzyme (Sus scrofa), A0A287AP33 (protein) MALDGERGEQEEEKKKKKKKKKRKKKKEEEGAKKSSSPFVATMGENDAALRAGGRGLSDPWADSVGVRPRTTERHITVHKRLVLAFAVSIVALLAVTMLAVLLSLRFDECGASIPPGADGGPAGFPARGGNESLPGSSRRDHHAGGDSSQPGAGREDTPETPSAQPPSEEEQEQWQPWTQLRLSGHLKPLHYNLMLTAFMENFTFSGEVNVEIACRNATRYVVLHASRVAVEKVQVAEDRVAGAVPVAGFFLYPQTQVLVVVLNRTLDAQRNYNLKIIYNALIENELLGFFRSSYVLHGERRFLGVTQFSPTHARKAFPCFDEPIYKATFKISIKHQATYLSLSNMPVETSVFEEDGWVTDHFSQTPLMSTYYLAWAICNFTYRETTTKSGVVVRLYARPDAIRRGSGDYALHITKRLIEFYEDYFKVPYSLPKLDLLAVPKHPYAAMENWGLSIFVEQRILLDPSVSSISYLLDVTMVIVHEICHQWFGDLVTPVWWEDVWLKEGFAHYFEFVGTDYLYPGWNMEKQRFLTDVLHEVMLLDGLASSHPVSQEVLRATDIDRVFDWIAYKKGAALIRMLANFMGHSVFQRGLQDYLTIHKYGNAARNDLWNTLSEALKRNGKYVNIQEVMDQWTLQMGYPVITIFGNTTAENRIIITQQHFIYDISAKAKPHELQNSSYLWQIPLTIVVGNRSHVSSEAIIWVSNKTEHHRITSLNKGSWLLGNINQTGYFRVNYDLRNWRLLIDQLIRNHEVLSVSNRAGLIDDAFSLARAGYLPQNIPLEIIRYLSEEKDFLPWHAASRALYPLDKLLDRMEKYNVFNEYILKQVATTYIKLGWPKNNFNGSLVQASYQHEELRREVIMLACSFGNKHCHQQASTLISDWISSNRNRIPLNVRDIVYCTGVSLLDEDVWEFIWMKFHSTTAISEKKILLEALTCSDDRNLLNRLLNLSLNSEVVLDQDAIDVIIHVARNPHGRDLAWKFFRDKWKILNTRYGEALFMNSKLISGVTEFLNTEGELKELKNFMKSYDGVAAASFSRAVETVEANVRWKMLYQDELFQWLGKALRH", "values": [
      {"measurement": "Vmax", "setting": "[4]", "result": 2.63, "unit": "U/mg"},
      {"measurement": "Vmax", "setting": "[5]", "result": 4.43, "unit": "U/mg"},
      {"measurement": "Vmax", "setting": "[6]", "result": 0.11, "unit": "U/mg"},
      {"measurement": "Vmax", "setting": "[7]", "result": 1.64, "unit": "U/mg"},
      {"measurement": "Vmax", "setting": "[8]", "result": 0.67, "unit": "U/mg"},
      {"measurement": "Vmax", "setting": "[9]", "result": 2.19, "unit": "U/mg"},
      {"measurement": "Km", "setting": "[10]", "result": 35, "unit": "µM"},
      {"measurement": "Km", "setting": "[11]", "result": 311, "unit": "µM"},
      {"measurement": "Km", "setting": "[12]", "result": 3.1, "unit": "µM"},
      {"measurement": "Km", "setting": "[13]", "result": 55, "unit": "µM"},
      {"measurement": "Km", "setting": "[14]", "result": 15, "unit": "µM"},
      {"measurement": "Km", "setting": "[15]", "result": 34, "unit": "µM"}
    ]}
  ]
}
